Source: PubChem BioAssay AID1963422 (Molecular Pharmacology Branch, DTP, NCI, 2024)
“And” between values parts separate entries of the source, which are not always exact repeats. Equal values may be shown once. Values belong to the molecule of their own block, whether it stands above or below them.

System: 463943-066-T-J2-PDC complex spheroid growth
Assay: Anticancer human tumor 463943-066-T-J2-PDC patient-derived colon adenocarcinoma cell line growth inhibition [Asc]
Settings: for viability, T/C: stronger effect = lower value
Procedure, shortened: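 Complex solid-tumor spheroids incorporating human endothelial and mesenchymal stem cells received single agents or combinations over half-log dilution ranges anchored to clinical Cmax.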

[1] = curve of first compound, second compound 0.00949 µM
[2] = curve of first compound, second compound 0.03 µM
[3] = curve of first compound, second compound 0.0949 µM
[4] = curve of first compound, second compound 0.3 µM
[5] = curve of first compound, second compound 0.949 µM
[6] = curve of first compound, second compound 3 µM
[7] = second compound 0.00949 µM, first compound 0.0316 µM
[8] = second compound 0.00949 µM, first compound 0.1 µM
[9] = second compound 0.00949 µM, first compound 0.316 µM
[10] = second compound 0.00949 µM, first compound 1 µM
[11] = second compound 0.03 µM, first compound 0.0316 µM
[12] = second compound 0.03 µM, first compound 0.1 µM
[13] = second compound 0.03 µM, first compound 0.316 µM
[14] = second compound 0.03 µM, first compound 1 µM
[15] = second compound 0.0949 µM, first compound 0.0316 µM
[16] = second compound 0.0949 µM, first compound 0.1 µM
[17] = second compound 0.0949 µM, first compound 0.316 µM
[18] = second compound 0.0949 µM, first compound 1 µM
[19] = second compound 0.3 µM, first compound 0.0316 µM
[20] = second compound 0.3 µM, first compound 0.1 µM
[21] = second compound 0.3 µM, first compound 0.316 µM
[22] = second compound 0.3 µM, first compound 1 µM
[23] = second compound 0.949 µM, first compound 0.0316 µM
[24] = second compound 0.949 µM, first compound 0.1 µM
[25] = second compound 0.949 µM, first compound 0.316 µM
[26] = second compound 0.949 µM, first compound 1 µM
[27] = second compound 3 µM, first compound 0.0316 µM
[28] = second compound 3 µM, first compound 0.1 µM
[29] = second compound 3 µM, first compound 0.316 µM
[30] = second compound 3 µM, first compound 1 µM
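Note: compound exposure lasted 7 days.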
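Throughout, for viability, T/C: 100% = DMSO vehicle control wells.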

SMILES: CCN1CCN(Cc2ccc(Nc3ncc(F)c(-c4cc(F)c5nc(C)n(C(C)C)c5c4)n3)nc2)CC1 + CCN1C(C(=O)NC23CCC(C(=O)O)(CC2)CC3)C(c2cccc(Cl)c2F)C2(C(=O)Nc3cc(Cl)ccc32)C12CCCCC2
IC50 [1]: > 1 µM | IC50 [2]: > 1 µM | IC50 [3]: > 1 µM | IC50 [4]: > 1 µM | IC50 [5]: > 1 µM | IC50 [6]: > 1 µM | viability, T/C (second compound 0.00949 µM, first compound 0.00316 µM): 99.6% | viability, T/C (second compound 0.00949 µM, first compound 0.01 µM): 92.3% | viability, T/C [7]: 91.4% | viability, T/C [8]: 96.2% | viability, T/C [9]: 110% | viability, T/C [10]: 113% | viability, T/C (second compound 0.03 µM, first compound 0.00316 µM): 94.8% | viability, T/C (second compound 0.03 µM, first compound 0.01 µM): 93.2% | viability, T/C [11]: 92.7% | viability, T/C [12]: 92.5% | viability, T/C [13]: 104% | viability, T/C [14]: 109% | viability, T/C (second compound 0.0949 µM, first compound 0.00316 µM): 91.4% | viability, T/C (second compound 0.0949 µM, first compound 0.01 µM): 90.8% | viability, T/C [15]: 84.2% | viability, T/C [16]: 92% | viability, T/C [17]: 96.2% | viability, T/C [18]: 106% | viability, T/C (second compound 0.3 µM, first compound 0.00316 µM): 85.6% | viability, T/C (second compound 0.3 µM, first compound 0.01 µM): 76.9% | viability, T/C [19]: 80.3% | viability, T/C [20]: 78% | viability, T/C [21]: 88.9% | viability, T/C [22]: 106% | viability, T/C (second compound 0.949 µM, first compound 0.00316 µM): 74.5% | viability, T/C (second compound 0.949 µM, first compound 0.01 µM): 75.5% | viability, T/C [23]: 76.2% | viability, T/C [24]: 75.4% | viability, T/C [25]: 81.5% | viability, T/C [26]: 99.4% | viability, T/C (second compound 3 µM, first compound 0.00316 µM): 72.5% | viability, T/C (second compound 3 µM, first compound 0.01 µM): 71.8% | viability, T/C [27]: 71.8% | viability, T/C [28]: 74.4% | viability, T/C [29]: 88.8% | viability, T/C [30]: 103%

SMILES: NC(=O)C(=Cn1cnc(-c2cc(C(F)(F)F)cc(C(F)(F)F)c2)n1)c1cncnc1
viability, T/C (compound 0.000949 µM): 96.5% and 87.3% and 115% | viability, T/C (compound 0.003 µM): 84.7% and 83.7% and 102% | viability, T/C (compound 0.00949 µM): 92.6% and 85.6% and 96.3% | viability, T/C (compound 0.03 µM): 87.8% and 84.8% and 87.7% | viability, T/C (compound 0.0949 µM): 83.6% and 81.3% and 79.4% | viability, T/C (compound 0.3 µM): 73.8% and 73.3% and 60.4% | IC50 (curve of compound): > 0.3 µM

SMILES: Cn1ncnc1[C@H]1c2n[nH]c(=O)c3cc(F)cc(c23)N[C@@H]1c1ccc(F)cc1
viability, T/C (compound 0.000316 µM): 98.9% and 88% and 106% | viability, T/C (compound 0.001 µM): 91.2% and 98.6% and 99.5% | viability, T/C (compound 0.00316 µM): 103% and 107% and 104% | viability, T/C (compound 0.01 µM): 96.4% and 102% (2×) | viability, T/C (compound 0.0316 µM): 102% and 103% (2×) | viability, T/C (compound 0.1 µM): 99.3% and 97.9% and 94% | IC50 (curve of compound): > 0.1 µM

Continued, in another order:

IC50 [1]: > 10 µM | IC50 [2]: > 10 µM | IC50 [3]: > 10 µM | IC50 [4]: > 10 µM | IC50 [5]: > 10 µM | IC50 [6]: > 10 µM
SMILES: C#Cc1c(F)ccc2cc(O)cc(-c3ncc4c(N5CC6CCC(C5)N6)nc(OCC56CCCN5CC(F)C6)nc4c3F)c12 (stereo not given) + CCN1C(C(=O)NC23CCC(C(=O)O)(CC2)CC3)C(c2cccc(Cl)c2F)C2(C(=O)Nc3cc(Cl)ccc32)C12CCCCC2
viability, T/C [7]: 94.4% | viability, T/C [8]: 99.3% | viability, T/C [9]: 94.3% | viability, T/C [10]: 101% | viability, T/C (second compound 0.00949 µM, first compound 3.16 µM): 108% | viability, T/C (second compound 0.00949 µM, first compound 10 µM): 88.3% | viability, T/C [11]: 102% | viability, T/C [12]: 90.5% | viability, T/C [13]: 94.1% | viability, T/C [14]: 101% | viability, T/C (second compound 0.03 µM, first compound 3.16 µM): 103% | viability, T/C (second compound 0.03 µM, first compound 10 µM): 82.5% | viability, T/C [15]: 91.5% | viability, T/C [16]: 88.8% | viability, T/C [17]: 94.2% | viability, T/C [18]: 93% | viability, T/C (second compound 0.0949 µM, first compound 3.16 µM): 91.7% | viability, T/C (second compound 0.0949 µM, first compound 10 µM): 94.1% | viability, T/C [19]: 88.4% | viability, T/C [20]: 81.6% | viability, T/C [21]: 87% | viability, T/C [22]: 83% | viability, T/C (second compound 0.3 µM, first compound 3.16 µM): 83.1% | viability, T/C (second compound 0.3 µM, first compound 10 µM): 85.4% | viability, T/C [23]: 74% | viability, T/C [24]: 73% | viability, T/C [25]: 78.8% | viability, T/C [26]: 77.9% | viability, T/C (second compound 0.949 µM, first compound 3.16 µM): 75.3% | viability, T/C (second compound 0.949 µM, first compound 10 µM): 71.2% | viability, T/C [27]: 70% | viability, T/C [28]: 71.8% | viability, T/C [29]: 70.5% | viability, T/C [30]: 73.3% | viability, T/C (second compound 3 µM, first compound 3.16 µM): 72.1% | viability, T/C (second compound 3 µM, first compound 10 µM): 67.6%

IC50 (curve of first compound, second compound 0.0316 µM): > 3 µM | IC50 (curve of first compound, second compound 0.1 µM): > 3 µM | IC50 (curve of first compound, second compound 0.316 µM): > 3 µM | IC50 (curve of first compound, second compound 1 µM): > 3 µM | IC50 (curve of first compound, second compound 3.16 µM): 0.14 µM | IC50 (curve of first compound, second compound 10 µM): < 0.00949 µM
SMILES: CCN1C(C(=O)NC23CCC(C(=O)O)(CC2)CC3)C(c2cccc(Cl)c2F)C2(C(=O)Nc3cc(Cl)ccc32)C12CCCCC2 (stereo not given) + Cc1c(S(C)(=O)=O)c(-c2cc(F)cc(N3CCN(c4ccc(NS(=O)(=O)c5ccc(NC(CCN6CCC(C(=O)OCCCP(=O)(O)O)CC6)CSc6ccccc6)c(S(=O)(=O)C(F)(F)F)c5)cc4)CC3)c2)c(-c2ccc(Cl)cc2)n1C(C)C
viability, T/C (second compound 0.0316 µM, first compound 0.00949 µM): 90.4% | viability, T/C (second compound 0.0316 µM, first compound 0.03 µM): 92.3% | viability, T/C (second compound 0.0316 µM, first compound 0.0949 µM): 89.3% | viability, T/C (second compound 0.0316 µM, first compound 0.3 µM): 76.5% | viability, T/C (second compound 0.0316 µM, first compound 0.949 µM): 70.2% | viability, T/C (second compound 0.0316 µM, first compound 3 µM): 61.8% | viability, T/C (second compound 0.1 µM, first compound 0.00949 µM): 88.9% | viability, T/C (second compound 0.1 µM, first compound 0.03 µM): 83.2% | viability, T/C (second compound 0.1 µM, first compound 0.0949 µM): 85.9% | viability, T/C (second compound 0.1 µM, first compound 0.3 µM): 73.3% | viability, T/C (second compound 0.1 µM, first compound 0.949 µM): 71.1% | viability, T/C (second compound 0.1 µM, first compound 3 µM): 60.8% | viability, T/C (second compound 0.316 µM, first compound 0.00949 µM): 80.6% | viability, T/C (second compound 0.316 µM, first compound 0.03 µM): 92.2% | viability, T/C (second compound 0.316 µM, first compound 0.0949 µM): 77.6% | viability, T/C (second compound 0.316 µM, first compound 0.3 µM): 71.4% | viability, T/C (second compound 0.316 µM, first compound 0.949 µM): 64.7% | viability, T/C (second compound 0.316 µM, first compound 3 µM): 57.2% | viability, T/C (second compound 1 µM, first compound 0.00949 µM): 70.1% | viability, T/C (second compound 1 µM, first compound 0.03 µM): 70.8% | viability, T/C (second compound 1 µM, first compound 0.0949 µM): 62.9% | viability, T/C (second compound 1 µM, first compound 0.3 µM): 58.4% | viability, T/C (second compound 1 µM, first compound 0.949 µM): 62% | viability, T/C (second compound 1 µM, first compound 3 µM): 51.2% | viability, T/C (second compound 3.16 µM, first compound 0.00949 µM): 55.8% | viability, T/C (second compound 3.16 µM, first compound 0.03 µM): 54.5% | viability, T/C (second compound 3.16 µM, first compound 0.0949 µM): 49.3% | viability, T/C (second compound 3.16 µM, first compound 0.3 µM): 48.2% | viability, T/C (second compound 3.16 µM, first compound 0.949 µM): 45.5% | viability, T/C (second compound 3.16 µM, first compound 3 µM): 39.4% | viability, T/C (second compound 10 µM, first compound 0.00949 µM): 46.7% | viability, T/C (second compound 10 µM, first compound 0.03 µM): 43.7% | viability, T/C (second compound 10 µM, first compound 0.0949 µM): 39.8% | viability, T/C (second compound 10 µM, first compound 0.3 µM): 34.8% | viability, T/C (second compound 10 µM, first compound 0.949 µM): 61.4% | viability, T/C (second compound 10 µM, first compound 3 µM): 34.5%
